Test results reported in ChEMBL document CHEMBL1141695, “Discovery of thieno[2,3-c]pyridines as potent COT inhibitors” (Bioorg Med Chem Lett, 2008).

Assays:
[1] = target: T1, Mitogen-activated protein kinase kinase kinase 8 (Homo sapiens, UniProt P41279); test: Inhibition of human recombinant COT by HTRF-based assay
[2] = Inhibition of ERK phosphorylation in LPS-stimulated mouse PEC by HTRF assay
[3] = target: Dual specificity mitogen-activated protein kinase kinase 1 (Homo sapiens, UniProt Q02750); test: Inhibition of MEK1 by HTRF assay
Sequence of Dual specificity mitogen-activated protein kinase kinase 1 (Q02750 whole entry): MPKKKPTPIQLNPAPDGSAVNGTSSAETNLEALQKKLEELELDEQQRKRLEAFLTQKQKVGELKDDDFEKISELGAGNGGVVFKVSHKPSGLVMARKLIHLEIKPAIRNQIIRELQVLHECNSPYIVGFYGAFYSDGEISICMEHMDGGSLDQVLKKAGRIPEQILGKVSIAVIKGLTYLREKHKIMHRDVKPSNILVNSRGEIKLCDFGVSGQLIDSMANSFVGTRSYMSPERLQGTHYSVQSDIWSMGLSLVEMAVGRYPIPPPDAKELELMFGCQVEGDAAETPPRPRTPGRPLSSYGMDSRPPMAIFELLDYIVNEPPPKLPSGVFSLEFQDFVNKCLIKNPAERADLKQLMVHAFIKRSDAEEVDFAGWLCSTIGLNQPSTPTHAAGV

[4] = target: T1, Mitogen-activated protein kinase kinase kinase 8; test: Inhibition of COT by cell-based HTRF assay

T1 sequence (P41279 whole entry): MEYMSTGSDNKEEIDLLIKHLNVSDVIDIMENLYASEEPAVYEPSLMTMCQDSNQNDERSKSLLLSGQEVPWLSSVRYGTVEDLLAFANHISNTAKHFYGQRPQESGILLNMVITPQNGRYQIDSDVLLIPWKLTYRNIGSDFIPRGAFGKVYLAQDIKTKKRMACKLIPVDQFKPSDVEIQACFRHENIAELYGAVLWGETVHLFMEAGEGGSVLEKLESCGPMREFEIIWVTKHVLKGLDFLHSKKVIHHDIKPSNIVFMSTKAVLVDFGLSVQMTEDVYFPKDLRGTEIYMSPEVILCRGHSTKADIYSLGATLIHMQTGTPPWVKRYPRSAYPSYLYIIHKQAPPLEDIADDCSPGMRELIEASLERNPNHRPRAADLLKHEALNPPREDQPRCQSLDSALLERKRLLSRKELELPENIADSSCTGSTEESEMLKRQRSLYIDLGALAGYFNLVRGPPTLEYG

| Structure (SMILES) | IC50 [1] [µM] | IC50 [2] [µM] | IC50 [3] [µM] | IC50 [4] [µM] |
| --- | --- | --- | --- | --- |
| O=C(O)c1cc2c(Oc3ccc(I)cc3)cncc2s1 | 0.94 |  |  |  |
| Clc1ccccc1-c1ccc(Oc2cncc3sc(-c4nn[nH]n4)cc23)cc1 | 0.15 | > 50 | 1.5 |  |
| c1ccc(Oc2cncc3sc(-c4nn[nH]n4)cc23)cc1 | 2.2 |  |  |  |
| Fc1ccc(-c2ccc(Oc3cncc4sc(-c5nn[nH]n5)cc34)cc2)cc1 | 0.17 | 11.3 | 7.6 | 6.5 |
| CC(C)(C)c1ccc(Oc2cncc3sc(-c4nn[nH]n4)cc23)cc1 | 0.61 |  |  |  |
| CC(=O)Nc1cc2c(Oc3ccc(I)cc3)cncc2s1 | > 50 |  |  |  |
| OCc1ccc(-c2ccc(Oc3cncc4sc(-c5nnn[nH]5)cc34)cc2)cc1 | 0.04 |  | 14 |  |
| COc1ccccc1-c1ccc(Oc2cncc3sc(-c4nnn[nH]4)cc23)cc1 | 0.32 |  | 21.8 |  |
| CN(C)C(=O)c1ccc(-c2ccc(Oc3cncc4sc(-c5nn[nH]n5)cc34)cc2)cc1 | 0.05 | > 50 | 48 |  |
| Clc1ccc(Oc2cncc3sc(-c4nnn[nH]4)cc23)cc1 | 0.71 |  |  |  |
| c1ccc(-c2cccc(Oc3cncc4sc(-c5nn[nH]n5)cc34)c2)cc1 | 1.7 |  |  |  |
| Clc1ccc(-c2ccc(Oc3cncc4sc(-c5nn[nH]n5)cc34)cc2)cc1 | 0.09 | > 50 | 2.4 | 2.1 |
| O=C(NO)c1cc2c(Oc3ccc(I)cc3)cncc2s1 | 0.54 |  |  |  |
| FC(F)(F)c1ccc(-c2ccc(Oc3cncc4sc(-c5nn[nH]n5)cc34)cc2)cc1 | 0.28 | 1.7 | 1.8 | 0.56 |
| Cc1ccc(Oc2cncc3sc(-c4nn[nH]n4)cc23)cc1 | 7.5 |  |  |  |
| COc1cccc(-c2ccc(Oc3cncc4sc(-c5nnn[nH]5)cc34)cc2)c1 | 0.24 |  | 23 |  |
| c1ccc(-c2ccc(Oc3cncc4sc(-c5nn[nH]n5)cc34)cc2)cc1 | 0.15 | 12 | 9.7 | 4.3 |
| Nc1cc2c(Oc3ccc(I)cc3)cncc2s1 | > 50 |  |  |  |
| COc1ccc(-c2ccc(Oc3cncc4sc(-c5nn[nH]n5)cc34)cc2)cc1 | 0.13 |  | 49 |  |
| Clc1cccc(-c2ccc(Oc3cncc4sc(-c5nn[nH]n5)cc34)cc2)c1 | 0.12 | > 50 | 1.9 |  |
| c1ccc(-c2ccccc2Oc2cncc3sc(-c4nn[nH]n4)cc23)cc1 | 15 |  |  |  |
| O=c1nc(-c2cc3c(Oc4ccc(I)cc4)cncc3s2)[nH]o1 | 1.12 |  |  |  |
| Brc1ccc(Oc2cncc3sc(-c4nnn[nH]4)cc23)cc1 | 1.6 |  |  |  |
| NC(=O)c1ccc(-c2ccc(Oc3cncc4sc(-c5nn[nH]n5)cc34)cc2)cc1 | 0.01 |  | 18 | 0.13 |
| N#Cc1ccc(-c2ccc(Oc3cncc4sc(-c5nn[nH]n5)cc34)cc2)cc1 | 0.31 | 47 | 21.2 |  |
| Nc1ccc(-c2ccc(Oc3cncc4sc(-c5nn[nH]n5)cc34)cc2)cc1 | 0.23 | 1.1 | 1.5 |  |
| Ic1ccc(Oc2cncc3sc(-c4nn[nH]n4)cc23)cc1 | 0.41 |  |  |  |
